Measurements as given in patent US20250313546A1, “NUCLEIC ACID BINDERS” (UNIVERSITY OF STRATHCLYDE, priority 2022, published 2025).
Values after ≈ are worked out from the molar mass of the structure shown. Read-outs that look alike come from different tables or passages of the source.

Experiments:
[1] = tested on: Staphylococcus aureus (ATCC 43300); test: Antibacterial MIC, broth microdilution (CLSI); assay type: cell-based; details: for S. aureus Selectivity Indices, Group: SI, IC50 (μM)/MIC80 (μM), HEK293 cytotoxicity, Alkyl Amidines and NH Pyrroles; for MIC80: Staphylococcus aureus, ATCC43300, read-out: MIC80 S. aureus
[2] = tested on: Enterococcus faecalis (ATCC 51299); test: Antibacterial MIC, broth microdilution (CLSI); assay type: cell-based; details: Enterococcus faecalis, ATCC51299; read-out: MIC80 E. faecalis
[3] = tested on: Escherichia coli (ATCC 25922); test: Antibacterial MIC, broth microdilution (CLSI); assay type: cell-based; details: Escherichia coli, ATCC25922; read-out: MIC80 E. coli
Aspergillus fumigatus = test: Expanded set of filamentous fungi, MIC broth microdilution (CLSI); assay type: cell-based
Aspergillus flavus = test: as above; assay type: cell-based; details: MIC at 50% inhibition; for MIC50: Aspergillus flavus; for MIC50 Aspergillus flavus: isolate Aflav3
Fusarium oxysporum = test: as above; assay type: cell-based; details: MIC at 50% inhibition; for MIC50: Fusarium oxysporum, isolate F2; for MIC50 Fusarium oxysporum: isolate F3
Scedosporium spp. = test: as above; assay type: cell-based
Rhizopus arrhizus = test: as above; assay type: cell-based
Candida parapsilosis = test: Expanded set of yeasts, MIC broth microdilution (CLSI); assay type: cell-based; details: MIC at 50% inhibition; for MIC50: Lodderomyces parapsilosis
C. krusei = test: as above; assay type: cell-based; details: Pichia kudriavzevii, ATCC6258; isolate ATCC 6258; MIC at 50% inhibition
C. auris = test: as above; assay type: cell-based; details: MIC at 50% inhibition; for MIC50: Candidozyma auris, isolate DI17-47
C. glabrata = test: as above; assay type: cell-based; details: Nakaseomyces glabratus, MIC at 50% inhibition
[4] = tested on: Genomic double stranded DNA (salmon); test: Fluorescence intercalator displacement (FID) assay, SYBR-safe probe; details: 20 μM compound, 30° C., lower % = stronger binding
How it was run: (§1)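 Compound at 20 μM mixed with 3.76 ng/mL polyAU dsRNA or salmon genomic dsDNA and 12500-fold diluted SybrSafe in 1 mM phosphate buffer pH 7.4, then heated to 30 °C and fluorescence read. Reduction is expressed as normalised %, with nucleic acid plus probe as maximum and probe alone as minimum.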

[5] = tested on: PolyAU double stranded RNA; test: as above; details: 20 μM compound, 30° C., lower % = stronger binding
How it was run: as §1

C. albicans (ATCC 90028) = details: Candida albicans, ATCC90028, read-out: MIC99 C. albicans
Method: (§2) The Minimum Inhibitory Concentration (MIC, at 99% inhibition) of the compounds was determined using the broth microdilution method as recommended by EUCAST (EUCAST Definitive Document E.DEF 9.3.2, Method for the determination of broth dilution minimum inhibitory concentrations of antifungal agents for conidia forming moulds and EUCAST Definitive Document E.DEF 7.3.2 Method for the determination of broth dilution minimum inhibitory concentrations of antifungal agents for yeasts).

C. neoformans (F10025) = details: Cryptococcus neoformans, read-out: MIC99 C. neoformans
Method: as §2

A. flavus (CBS 128.202) = details: Aspergillus flavus, CBS128, read-out: MIC99 A. flavus
Method: as §2

[6] = tested on: Rhizopus arrhizus (NEQAS12.35321); details: read-out: MIC99 Rhizopus arrhizus
Method: as §2

[7] = tested on: Candida glabrata (ACPF3309); details: Nakaseomyces glabratus, read-out: MIC99 Candida glabrata
Method: as §2

[8] = tested on: Fusarium oxysporum (F7098); details: read-out: MIC99 Fusarium oxysporum
Method: as §2

[9] = tested on: Scedosporium prolificans (F2746); details: Lomentospora prolificans, read-out: MIC99 Scedosporium prolificans
Method: as §2

[10] = isolate AF293, MIC at 50% inhibition
[11] = isolate DI15-106, MIC at 50% inhibition
[12] = isolate DI15-116, MIC at 50% inhibition
[13] = isolate DI19-187, MIC at 50% inhibition
[14] = isolate DI19-230, MIC at 50% inhibition
[15] = isolate DI19-231, MIC at 50% inhibition
[16] = isolate DI19-232, MIC at 50% inhibition
[17] = isolate DI19-233, MIC at 50% inhibition
[18] = isolate DI19-234, MIC at 50% inhibition
[19] = isolate DI19-236, MIC at 50% inhibition
[20] = isolate DI19-237, MIC at 50% inhibition
[21] = isolate DI20-95, MIC at 50% inhibition
[22] = isolate DI20-103, MIC at 50% inhibition
[23] = ATCC204304, isolate ATCC 204304
[24] = isolate S1, MIC at 50% inhibition
[25] = isolate S3, MIC at 50% inhibition
[26] = isolate 99-880, MIC at 50% inhibition
[27] = isolate 99-892, MIC at 50% inhibition
[28] = isolate RA3, MIC at 50% inhibition
[29] = ATCC22019, isolate ATCC 22019, read-out: MIC50 Candida parapsilosis
[30] = isolate CP1, read-out: MIC50 C. parapsilosis

## [H]/N=C(\CCNC(=O)c1cc(NC(=O)c2cc(NC(=O)c3ccc(C=Cc4ccc(N(C)C)cc4)nc3)cn2C)cn1C)NC [Ia9, (E)-6-(4-(dimethylamino)styryl)-N-(5-((5-((3-imino-3-(methylamino)propyl)carbamoyl)-1-methyl-1H-pyrrol-3-yl)carbamoyl)-1-methyl-1H-pyrrol-3-yl)nicotinamide]
[1]
  S. aureus Selectivity Indices, Group: C (Group C: 5 < SI <= 10)
  MIC80: 5 to 25 µM (≈ 2.98 to 14.9 µg/mL)
[2]
  MIC80: 25 to 100 µM (≈ 14.9 to 59.6 µg/mL)
[3]
  MIC80: > 100 µM
Aspergillus fumigatus; [10]
  MIC50: 1 to 8 µg/mL (≈ 1.68 to 13.4 µM)
Aspergillus fumigatus; [11]
  MIC50: 1 to 8 µg/mL (≈ 1.68 to 13.4 µM)
Aspergillus fumigatus; [12]
  MIC50: 1 to 8 µg/mL (≈ 1.68 to 13.4 µM)
Aspergillus fumigatus; [13]
  MIC50: 1 to 8 µg/mL (≈ 1.68 to 13.4 µM)
Aspergillus fumigatus; [14]
  MIC50: 1 to 8 µg/mL (≈ 1.68 to 13.4 µM)
Aspergillus fumigatus; [15]
  MIC50: 1 to 8 µg/mL (≈ 1.68 to 13.4 µM)
Aspergillus fumigatus; [16]
  MIC50: 1 to 8 µg/mL (≈ 1.68 to 13.4 µM)
Aspergillus fumigatus; [17]
  MIC50: 1 to 8 µg/mL (≈ 1.68 to 13.4 µM)
Aspergillus fumigatus; [18]
  MIC50: 1 to 8 µg/mL (≈ 1.68 to 13.4 µM)
Aspergillus fumigatus; [19]
  MIC50: 1 to 8 µg/mL (≈ 1.68 to 13.4 µM)
Aspergillus fumigatus; [20]
  MIC50: 1 to 8 µg/mL (≈ 1.68 to 13.4 µM)
Aspergillus fumigatus; [21]
  MIC50: 1 to 8 µg/mL (≈ 1.68 to 13.4 µM)
Aspergillus fumigatus; [22]
  MIC50: 1 to 8 µg/mL (≈ 1.68 to 13.4 µM)
Aspergillus flavus; [23]
  MIC50: 1 to 8 µg/mL (≈ 1.68 to 13.4 µM)
Aspergillus flavus; isolate Aflav2
  MIC50: 1 to 8 µg/mL (≈ 1.68 to 13.4 µM)
Aspergillus flavus
  MIC50 Aspergillus flavus: ** (** means 1 μg/mL < MIC50 <= 8 μg/mL)
Fusarium oxysporum
  MIC50: ≤ 1 µg/mL
  MIC50 Fusarium oxysporum: *** (*** means MIC50 <= 1 μg/mL)
Scedosporium spp.; [24]
  MIC50: 1 to 8 µg/mL (≈ 1.68 to 13.4 µM)
Scedosporium spp.; [25]
  MIC50: ≤ 1 µg/mL
Rhizopus arrhizus; [26]
  MIC50: 1 to 8 µg/mL (≈ 1.68 to 13.4 µM)
Rhizopus arrhizus; [27]
  MIC50: 1 to 8 µg/mL (≈ 1.68 to 13.4 µM)
Rhizopus arrhizus; [28]
  MIC50: 1 to 8 µg/mL (≈ 1.68 to 13.4 µM)
Candida parapsilosis; [29]
  MIC50: 1 to 8 µg/mL (≈ 1.68 to 13.4 µM)
Candida parapsilosis; [30]
  MIC50: 1 to 8 µg/mL (≈ 1.68 to 13.4 µM)
Candida parapsilosis; isolate CP2
  MIC50 C. parapsilosis: ** (** means 1 μg/mL < MIC50 <= 8 μg/mL)
Candida parapsilosis; isolate CP3
  MIC50 C. parapsilosis: ** (** means 1 μg/mL < MIC50 <= 8 μg/mL)
C. krusei
  MIC50: 1 to 8 µg/mL (≈ 1.68 to 13.4 µM)
C. auris
  MIC50: 1 to 8 µg/mL (≈ 1.68 to 13.4 µM)
C. auris; isolate DI17-46
  MIC50 C. auris: ** (** means 1 μg/mL < MIC50 <= 8 μg/mL)
C. auris; isolate DI17-48
  MIC50 C. auris: ** (** means 1 μg/mL < MIC50 <= 8 μg/mL)
C. glabrata; isolate 05-62
  MIC50: 1 to 8 µg/mL (≈ 1.68 to 13.4 µM)
C. glabrata; isolate 05-761
  MIC50: ≤ 1 µg/mL
C. glabrata; isolate CG3
  MIC50: 1 to 8 µg/mL (≈ 1.68 to 13.4 µM)
[4]
  % Normalised Fluorescence with gDNA: 13%
[5]
  % Normalised Fluorescence with polyAU RNA: 19%
C. albicans (ATCC 90028)
  MIC99: 5 to 25 µg/mL (≈ 8.39 to 42 µM)
C. neoformans (F10025)
  MIC99: < 5 µg/mL
A. flavus (CBS 128.202)
  MIC99: 5 to 25 µg/mL (≈ 8.39 to 42 µM)
[6]
  MIC99: 5 to 25 µg/mL (≈ 8.39 to 42 µM)
[7]
  MIC99: 5 to 25 µg/mL (≈ 8.39 to 42 µM)
[8]
  MIC99: < 5 µg/mL
[9]
  MIC99: 5 to 25 µg/mL (≈ 8.39 to 42 µM)

## C/N=C(/CCNC(=O)c1cc(NC(=O)c2cc(NC(=O)c3ccc(/C=C/c4cnc5ccccc5c4)cc3)cn2C)cn1C)NC [Ia10, 1-methyl-4-(1-methyl-4-(4-((E)-2-(quinolin-3-yl)vinyl)benzamido)-1H-pyrrole-2-carboxamido)-N—((Z)-3-(methylamino)-3-(methylimino)propyl)-1H-pyrrole-2-carboxamide]
[1]
  S. aureus Selectivity Indices, Group: B (Group B: 3 < SI <= 5)
  MIC80: < 5 µM
[2]
  MIC80: < 5 µM
[3]
  MIC80: > 100 µM
Aspergillus fumigatus; [10]
  MIC50: ≤ 1 µg/mL
Aspergillus fumigatus; [11]
  MIC50: ≤ 1 µg/mL
Aspergillus fumigatus; [12]
  MIC50: ≤ 1 µg/mL
Aspergillus fumigatus; [13]
  MIC50: ≤ 1 µg/mL
Aspergillus fumigatus; [14]
  MIC50: ≤ 1 µg/mL
Aspergillus fumigatus; [15]
  MIC50: 1 to 8 µg/mL (≈ 1.62 to 13 µM)
Aspergillus fumigatus; [16]
  MIC50: ≤ 1 µg/mL
Aspergillus fumigatus; [17]
  MIC50: ≤ 1 µg/mL
Aspergillus fumigatus; [18]
  MIC50: ≤ 1 µg/mL
Aspergillus fumigatus; [19]
  MIC50: ≤ 1 µg/mL
Aspergillus fumigatus; [20]
  MIC50: ≤ 1 µg/mL
Aspergillus fumigatus; [21]
  MIC50: ≤ 1 µg/mL
Aspergillus fumigatus; [22]
  MIC50: ≤ 1 µg/mL
Aspergillus flavus; [23]
  MIC50: ≤ 1 µg/mL
Aspergillus flavus; isolate Aflav2
  MIC50: ≤ 1 µg/mL
Aspergillus flavus
  MIC50 Aspergillus flavus: *** (*** means MIC50 <= 1 μg/mL)
Fusarium oxysporum
  MIC50: ≤ 1 µg/mL
  MIC50 Fusarium oxysporum: *** (*** means MIC50 <= 1 μg/mL)
Scedosporium spp.; [24]
  MIC50: ≤ 1 µg/mL
Scedosporium spp.; [25]
  MIC50: ≤ 1 µg/mL
Rhizopus arrhizus; [26]
  MIC50: 1 to 8 µg/mL (≈ 1.62 to 13 µM)
Rhizopus arrhizus; [27]
  MIC50: 1 to 8 µg/mL (≈ 1.62 to 13 µM)
Rhizopus arrhizus; [28]
  MIC50: 1 to 8 µg/mL (≈ 1.62 to 13 µM)
Candida parapsilosis; [29]
  MIC50: 1 to 8 µg/mL (≈ 1.62 to 13 µM)
Candida parapsilosis; [30]
  MIC50: 1 to 8 µg/mL (≈ 1.62 to 13 µM)
Candida parapsilosis; isolate CP2
  MIC50 C. parapsilosis: ** (** means 1 μg/mL < MIC50 <= 8 μg/mL)
Candida parapsilosis; isolate CP3
  MIC50 C. parapsilosis: ** (** means 1 μg/mL < MIC50 <= 8 μg/mL)
C. krusei
  MIC50: ≤ 1 µg/mL
C. auris
  MIC50: 1 to 8 µg/mL (≈ 1.62 to 13 µM)
C. auris; isolate DI17-46
  MIC50 C. auris: ** (** means 1 μg/mL < MIC50 <= 8 μg/mL)
C. auris; isolate DI17-48
  MIC50 C. auris: ** (** means 1 μg/mL < MIC50 <= 8 μg/mL)
C. glabrata; isolate 05-62
  MIC50: ≤ 1 µg/mL
C. glabrata; isolate 05-761
  MIC50: ≤ 1 µg/mL
C. glabrata; isolate CG3
  MIC50: ≤ 1 µg/mL
[4]
  % Normalised Fluorescence with gDNA: 8%
[5]
  % Normalised Fluorescence with polyAU RNA: 17%
C. albicans (ATCC 90028)
  MIC99: 5 to 25 µg/mL (≈ 8.11 to 40.5 µM)
C. neoformans (F10025)
  MIC99: < 5 µg/mL
A. flavus (CBS 128.202)
  MIC99: < 5 µg/mL
[6]
  MIC99: 5 to 25 µg/mL (≈ 8.11 to 40.5 µM)
[7]
  MIC99: < 5 µg/mL
[8]
  MIC99: 5 to 25 µg/mL (≈ 8.11 to 40.5 µM)
[9]
  MIC99: < 5 µg/mL
